# According to US20220168430A1, “THERAPEUTIC METHODS FOR TREATING HEPATITIS B” (priority 2019, published 2022):
# Several values for one entry are separate records, joined by “and”; a condition that tells them apart may be missing. Equal entries are not always repeated. Where two headings read alike, the source gives them in different places.
# Experiments:
# HepG2.2.15 cells = type: cell-based, human; details: Cmpd 2 μM: 0.01, 0.0032, 0.001, 0.0003, 0.0001, 0
# Excerpt: The combination results were completed in duplicate with each assay consisting of 4 technical repeats.
# The combination results were completed in duplicate with each assay consisting of 4 technical repeats. In this assay system, the combination results in additive inhibition of HBV DNA.
# HBV DNA = HBV DNA by branched DNA assay in HepG2.2.15 cells, two-compound combinations (Examples 13-14); type: cell-based, HBV; HepG2.2.15 (human hepatoblastoma); details: for EC50: Hepatitis B virus; for Average percent inhibition versus negative control: n = 4; for Additive percent inhibition versus negative control: Compound (2) μM: 0.01, 0.0032, 0.001, 0.0003, 0.0001, 0
# Description: In vitro combination studies were conducted using the method of Prichard and Shipman (Prichard M N, and Shipman C Jr., Antiviral Research, 1990, 14(4-5), 181-205; and Prichard M N, et. al., MacSynergy II). The HepG2.2.15 cell culture system is a cell line derived from human hepatoblastoma HepG2 cells, which have been stably transfected with the adw2-subtype HBV genome as previously explained in Sells et al. (Proc. Natl. Acad. Sci. U. S. A, 1987. Vol 84:1005-1009). HepG2.2.15 cells secrete Dane-like viral particles, produce HBV DNA, and produce the viral proteins, HBeAg and HBsAg.
# Although inhibition of HBV DNA, RNA and proteins can be determined in the presence of these inhibitors, we used the branched DNA assay due to its ability to quantitatively measure the level HBV DNA.
# Detection of HBV DNA. The branched DNA assay (bDNA) was used to determine the effect of compound combinations on HBV DNA. HepG2.2.15 (10,000 cells/well) were cultured in DMEM medium plus supplements as described above. The next day, the cells were replenished with fresh medium followed by the addition of Inhibitor A and B, both were dissolved in 100% DMSO. The microtiter cell plates were incubated for a total duration of 6 days at 37° C. without replenishing media or compound. The serial dilutions spanned concentration ranges respective to the EC50 value of each compound. In addition to combination testing of the compounds, both inhibitors A and B were also tested singly.
# The level of bDNA present in the inhibitor-treated supernatant wells was measured using a Quantigene 2.0 bDNA assay kit (Affymetrix, Santa Clara, Calif.) with HBV specific custom probe set (genotype D ayw; DF-10739) and manufacturer's instructions after performing a proteinase K digestion in lysis. The plates were read using a Victor luminescence plate reader (PerkinElmer Model 1420 Multilabel counter) and the RLU data generated from each well was calculated as inhibition of the untreated control wells. The data was analyzed using the interpretive guidelines established by Prichard and Shipman combination model using the MacSynergy II program (Prichard M N, Shipman C Jr. Antiviral Research, 1990. Vol 14(4-5):181-205; Prichard M N, Aseltine KR, and Shipman, C. MacSynergy II. University of Michigan 1992) to determine whether the combinations were synergistic, additive or antagonistic using the interpretive guidelines established by Prichard and Shipman as follows: synergy volumes <25 μM2% (log volume <2) at 95% CI=probably insignificant; 25-50 (log volume >2 and <5)=minor but significant 50-100 (log volume >5 and <9)=moderate, may be important in vivo; Over 100 (log volume >9)=strong synergy, probably important in vivo; volumes approaching 1000 (log volume >90)=unusually high, check data. The RLU data from the single compound treated cells were analyzed using XL-Fit module in Microsoft Excel to determine EC50 values using a 4-parameter curve fitting algorithm.
# [1] = TAF 0.0002 μM, Cmpd 2 μM: 0.01, 0.0032, 0.001, 0.0003, 0.0001, 0
# [2] = TAF 0.0006 μM, Cmpd 2 μM: 0.01, 0.0032, 0.001, 0.0003, 0.0001, 0
# [3] = TAF 0.0020 μM, Cmpd 2 μM: 0.01, 0.0032, 0.001, 0.0003, 0.0001, 0
# [4] = TAF 0.0064 μM, Cmpd 2 μM: 0.01, 0.0032, 0.001, 0.0003, 0.0001, 0
# [5] = TAF 0.0201 μM, Cmpd 2 μM: 0.01, 0.0032, 0.001, 0.0003, 0.0001, 0
# [6] = TAF 0.0634 μM, Cmpd 2 μM: 0.01, 0.0032, 0.001, 0.0003, 0.0001, 0
# [7] = TAF 0.2002 μM, Cmpd 2 μM: 0.01, 0.0032, 0.001, 0.0003, 0.0001, 0
# [8] = TAF 0.6329 μM, Cmpd 2 μM: 0.01, 0.0032, 0.001, 0.0003, 0.0001, 0
# [9] = TAF 2.0 μM, Cmpd 2 μM: 0.01, 0.0032, 0.001, 0.0003, 0.0001, 0
compound,measurement,setting,value
COCCCOc1cc2c(nc1OC)-c1cc(=O)c(C(=O)O)cn1[C@H](C(C)C)C2 [Compound 2],Average percent of cell viability vs control,HepG2.2.15 cells; ETV 0 μM,92.68% and 81.35% and 91.36% and 92.57% and 80.37%
same,Average percent of cell viability vs control,HepG2.2.15 cells; TAF 0 μM,104.89% and 104.08% and 103.79% and 101.80% and 99.27%
same,"MacSynergy Volume Calculations, 99.99% confidence interval (Bonferroni Adj. 96%)","HBV DNA; ETV 0 μM, Cmpd 2 μM: 0.01, 0.0032, 0.001, 0.0003, 0.0001, 0",0.00
same,EC50,"HBV DNA; HepG2.2.15, HepG2.2.15, bDNA quantitation, study with ETV as Inhibitor A, read-out: Inhibitor B EC50",0.9 nM
same,EC50,"HBV DNA; HepG2.2.15, HepG2.2.15, bDNA quantitation, study with TAF as Inhibitor A, read-out: Inhibitor B EC50",0.6 nM
same,"MacSynergy Volume Calculations, 99.99% confidence interval (Bonferroni Adj. 96%)","HBV DNA; TAF 0 μM, Cmpd 2 μM: 0.01, 0.0032, 0.001, 0.0003, 0.0001, 0",0
"C=C1[C@H](CO)[C@@H](O)C[C@@H]1n1cnc2c(=O)[nH]c(N)nc21 [ETV, entecavir]",Average percent of cell viability vs control,HepG2.2.15 cells; ETV 3.17E−05 μM,101.92%
same,"MacSynergy Volume Calculations, 99.99% confidence interval (Bonferroni Adj. 96%)",HBV DNA,0.00
same,Average percent inhibition versus negative control,"HBV DNA; ETV 0.0001 μM, Cmpd 2 μM: 0.01, 0.0032, 0.001, 0.0003, 0.0001, 0",−21.2%
same,Additive percent inhibition versus negative control,HBV DNA; ETV 0.0001 μM,−21.2%
same,Average percent inhibition versus negative control,"HBV DNA; ETV 0.001 μM, Cmpd 2 μM: 0.01, 0.0032, 0.001, 0.0003, 0.0001, 0",48.98%
same,Additive percent inhibition versus negative control,HBV DNA; ETV 0.001 μM,48.98%
same,Average percent inhibition versus negative control,"HBV DNA; ETV 0.1 μM, Cmpd 2 μM: 0.01, 0.0032, 0.001, 0.0003, 0.0001, 0",85.09%
same,Additive percent inhibition versus negative control,HBV DNA; ETV 0.1 μM,85.09%
same,Average percent inhibition versus negative control,"HBV DNA; ETV 1.0E−05 μM, Cmpd 2 μM: 0.01, 0.0032, 0.001, 0.0003, 0.0001, 0",−88.53%
same,Additive percent inhibition versus negative control,HBV DNA; ETV 1.0E−05 μM,−88.53%
same,Average percent inhibition versus negative control,"HBV DNA; ETV 1.00E−06 μM, Cmpd 2 μM: 0.01, 0.0032, 0.001, 0.0003, 0.0001, 0",−90.87%
same,Additive percent inhibition versus negative control,HBV DNA; ETV 1.00E−06 μM,−90.87%
same,Average percent inhibition versus negative control,"HBV DNA; ETV 3.16E−06 μM, Cmpd 2 μM: 0.01, 0.0032, 0.001, 0.0003, 0.0001, 0",−90.2%
same,Additive percent inhibition versus negative control,HBV DNA; ETV 3.16E−06 μM,−90.2%
same,Average percent inhibition versus negative control,"HBV DNA; ETV 3.17E−05 μM, Cmpd 2 μM: 0.01, 0.0032, 0.001, 0.0003, 0.0001, 0",−55.97%
same,Additive percent inhibition versus negative control,HBV DNA; ETV 3.17E−05 μM,−55.97%
same,EC50,"HBV DNA; HepG2.2.15, bDNA quantitation, read-out: Inhibitor A EC50",3.2 nM
"CC(C)OC(=O)[C@H](C)N[P@](=O)(CO[C@H](C)Cn1cnc2c(N)ncnc21)Oc1ccccc1 [TAF, tenofovir alafenamide]",Average percent of cell viability vs control,HepG2.2.15 cells; TAF 0.0002 μM,103.95%
same,Average percent of cell viability vs control,HepG2.2.15 cells; TAF 0.0006 μM,104.32%
same,Average percent of cell viability vs control,HepG2.2.15 cells; TAF 0.0020 μM,103.73%
same,Average percent of cell viability vs control,HepG2.2.15 cells; TAF 0.0064 μM,101.18%
same,Average percent of cell viability vs control,HepG2.2.15 cells; TAF 0.0201 μM,101.33%
same,Average percent of cell viability vs control,HepG2.2.15 cells; TAF 0.0634 μM,103.56%
same,Average percent of cell viability vs control,HepG2.2.15 cells; TAF 0.2002 μM,96.48%
same,Average percent of cell viability vs control,HepG2.2.15 cells; TAF 0.6329 μM,80.67%
same,Average percent of cell viability vs control,HepG2.2.15 cells; TAF 2.0 μM,88.67%
same,EC50,"HBV DNA; HepG2.2.15, read-out: Inhibitor A EC50",54 nM
same,"MacSynergy Volume Calculations, 99.99% confidence interval (Bonferroni Adj. 96%)",HBV DNA; [1],0
same,Average percent inhibition versus negative control,HBV DNA; [1],8.88%
same,Additive percent inhibition versus negative control,HBV DNA; TAF 0.0002 μM,8.88%
same,"MacSynergy Volume Calculations, 99.99% confidence interval (Bonferroni Adj. 96%)",HBV DNA; [2],0
same,Average percent inhibition versus negative control,HBV DNA; [2],12.91%
same,Additive percent inhibition versus negative control,HBV DNA; TAF 0.0006 μM,12.91%
same,"MacSynergy Volume Calculations, 99.99% confidence interval (Bonferroni Adj. 96%)",HBV DNA; [3],0
same,Average percent inhibition versus negative control,HBV DNA; [3],14.28%
same,Additive percent inhibition versus negative control,HBV DNA; TAF 0.0020 μM,14.28%
same,"MacSynergy Volume Calculations, 99.99% confidence interval (Bonferroni Adj. 96%)",HBV DNA; [4],0
same,Average percent inhibition versus negative control,HBV DNA; [4],19.87%
same,Additive percent inhibition versus negative control,HBV DNA; TAF 0.0064 μM,19.87%
same,"MacSynergy Volume Calculations, 99.99% confidence interval (Bonferroni Adj. 96%)",HBV DNA; [5],0
same,Average percent inhibition versus negative control,HBV DNA; [5],25.36%
same,Additive percent inhibition versus negative control,HBV DNA; TAF 0.0201 μM,25.36%
same,"MacSynergy Volume Calculations, 99.99% confidence interval (Bonferroni Adj. 96%)",HBV DNA; [6],0
same,Average percent inhibition versus negative control,HBV DNA; [6],42.96%
same,Additive percent inhibition versus negative control,HBV DNA; TAF 0.0634 μM,42.96%
same,"MacSynergy Volume Calculations, 99.99% confidence interval (Bonferroni Adj. 96%)",HBV DNA; [7],0
same,Average percent inhibition versus negative control,HBV DNA; [7],62.7%
same,Additive percent inhibition versus negative control,HBV DNA; TAF 0.2002 μM,62.7%
same,"MacSynergy Volume Calculations, 99.99% confidence interval (Bonferroni Adj. 96%)",HBV DNA; [8],0
same,Average percent inhibition versus negative control,HBV DNA; [8],76.45%
same,Additive percent inhibition versus negative control,HBV DNA; TAF 0.6329 μM,76.45%
same,"MacSynergy Volume Calculations, 99.99% confidence interval (Bonferroni Adj. 96%)",HBV DNA; [9],0
same,Average percent inhibition versus negative control,HBV DNA; [9],87.21%
same,Additive percent inhibition versus negative control,HBV DNA; TAF 2.0 μM,87.21%
